Experimental data taken from PMC10609273, “Radiosynthesis and Early Evaluation of a Positron Emission Tomography Imaging Probe [^18F]AGAL Targeting Alpha-Galactosidase A Enzyme for Fabry Disease” (Molecules, 2023).

Experiment: In vitro liver microsomal metabolism study, rat
Assay type: in vitro ADME
Details: rat liver microsomes
Method: Metabolic stability was assessed by incubating compounds in the presence of human, rat, and mouse liver microsomal fractions (Xenotech, Kansas City, KS, USA). All chemicals and reagents, including control compounds, were purchased from commercial sources such as Sigma-Aldrich (St. Louis, MO, USA) or Toronto Research Chemicals (North York, ON, Canada). Liver microsomal incubations were conducted with 100 mM phosphate buffer, 0.5 mg/mL of liver microsomal protein, 2 mM NADPH, 2.5 mM UDPGA, 3 mM MgCl2, alamethicin, and 1 μM test article for a total incubation volume of 80 µL. All reagents except the liver microsomes were mixed together and aliquoted (60 μL) into 96-well plates. The reaction was initiated by adding the microsomes (20 μL). At 0, 3, 7, 12, 20, and 30 min time points, the reactions were terminated with the addition of acetonitrile-containing carbutamide (as an internal standard). The terminated samples were then centrifuged at 2 °C to pellet the protein and the supernatant was injected onto an LC–MS. The test article was monitored for loss over time and the t1/2 was determined. The calculated t1/2 was then used as described below to determine the Eh (hepatic extraction ratio) for both human and rat.
The intrinsic clearance (CLint), hepatic clearance (CLh), and hepatic extraction ratio (Eh) were calculated using the equations below. CLint = (0.693/t1/2 in vitro) × (mL incubation volume/mg microsomal protein) × (X mg of microsomal protein/gram of liver) × (Y g of liver/kg of body weight)(1) CLh = Q × CLint/Q + CLint(2) Eh = CLh/Q(3) where: • CLint = intrinsic clearance (calculated from microsomal incubations) • X = 40 for human, 41.5 for rat and 45 for mouse • Y = 21.4 for human, 40 for rat and 50 for mouse • t1/2 = half-life • CLh = hepatic clearance • Q = liver blood flow rate = 1.24 L/h/kg for human, 4.8 L/h/kg for rat, and 5.4 L/h/kg for mouse • Eh = hepatic extraction ratio • CLh = hepatic clearance

CLh: 55.7 mL/min/kg
Eh (hepatic extraction ratio): 0.695
microsomal stability, clearance in words: moderately cleared
CLint scaled at 1 µM (1 μM, NADPH + UDPGA): 182 mL/min/kg
Structure (SMILES): O=C(CCCCCCCn1cc(CCCF)nn1)N1[C@@H]2[C@H](O)[C@@H](O)[C@@H](O)[C@@H](CO)[C@@H]21 [AGAL]
